Patent publication US20240158418A1 (C4 Therapeutics, Inc., priority 2021, published 2024)
Like-named read-outs stand apart in the source and are kept apart here.

Tests used:
Assay type in all cases: cell-based
pY1068 EGFR L858R = molecular target: T1, pY1068 EGFR L858R (Homo sapiens, UniProt P00533, L858R); test: Phospho-EGFR (pY1068) inhibition HTRF, NCI-H3255; conditions: 6 hours, read-out: pEGFR IC50
T1 construct: NCI-H3255 (harboring EGFR heterozygous L858R mutation); host or cells: NCI-H3255
T1 sequence (P00533 25-1210 L858R): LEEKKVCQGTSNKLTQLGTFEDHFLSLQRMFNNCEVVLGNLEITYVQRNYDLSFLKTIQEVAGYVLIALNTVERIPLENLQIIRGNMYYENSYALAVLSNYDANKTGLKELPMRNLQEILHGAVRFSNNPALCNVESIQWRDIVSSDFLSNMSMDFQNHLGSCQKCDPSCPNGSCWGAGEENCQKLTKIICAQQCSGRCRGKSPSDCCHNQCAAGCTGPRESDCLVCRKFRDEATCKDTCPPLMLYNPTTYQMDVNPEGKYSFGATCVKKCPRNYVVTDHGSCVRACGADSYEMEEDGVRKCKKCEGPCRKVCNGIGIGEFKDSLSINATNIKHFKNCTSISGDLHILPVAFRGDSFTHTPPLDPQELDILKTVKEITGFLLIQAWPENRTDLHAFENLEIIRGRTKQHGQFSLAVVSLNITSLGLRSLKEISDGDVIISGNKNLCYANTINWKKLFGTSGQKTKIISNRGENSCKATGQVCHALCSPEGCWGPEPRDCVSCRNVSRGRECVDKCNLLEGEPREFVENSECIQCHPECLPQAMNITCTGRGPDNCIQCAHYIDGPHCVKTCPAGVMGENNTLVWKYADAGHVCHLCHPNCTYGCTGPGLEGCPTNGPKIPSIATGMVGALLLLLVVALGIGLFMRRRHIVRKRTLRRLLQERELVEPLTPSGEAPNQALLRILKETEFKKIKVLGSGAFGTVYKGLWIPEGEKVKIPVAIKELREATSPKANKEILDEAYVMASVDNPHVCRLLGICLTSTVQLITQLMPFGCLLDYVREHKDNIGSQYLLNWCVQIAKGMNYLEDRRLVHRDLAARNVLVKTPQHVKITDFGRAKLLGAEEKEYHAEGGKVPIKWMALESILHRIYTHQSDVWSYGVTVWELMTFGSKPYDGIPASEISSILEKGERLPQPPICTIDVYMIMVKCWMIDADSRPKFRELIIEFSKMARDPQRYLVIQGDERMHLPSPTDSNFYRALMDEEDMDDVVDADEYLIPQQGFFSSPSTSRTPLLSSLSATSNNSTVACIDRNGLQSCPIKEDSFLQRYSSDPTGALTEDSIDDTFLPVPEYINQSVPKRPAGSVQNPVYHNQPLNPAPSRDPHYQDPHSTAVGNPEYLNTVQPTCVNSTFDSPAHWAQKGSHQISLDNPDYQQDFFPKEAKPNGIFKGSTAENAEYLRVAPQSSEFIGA
From the text: (§1) NCI-H1975 (harboring EGFR heterozygous L858R-T790M mutations) and NCI-H3255 (harboring EGFR heterozygous L858R mutation) were purchased from ATCC and NCI, respectively. NCI-H1975+CS (harboring EGFR heterozygous L858R-T790M-C797S mutations) was generated using CRISPR technology to introduce the additional C797S mutation by Horizon Discovery. A431 (harboring EGFR wildtype) was purchased from ATCC. RPMI 1640 no-phenol red medium and fetal bovine serum (FBS) were purchased from Gibco (Grand Island, NY, USA). Cell culture flasks and 384-well microplates were acquired from VWR (Radnor, PA, USA). Phosphorylated (pY1068) EGFR and Total EGFR (using L858R-specific detection antibody and pan-EGFR antibody for EGFR mutant cell lines and EGFR wild-type cell lines, respectively) HTRF assay kits were purchased from Cisbio (Bedford, MA, USA).
(§2) Degradation of EGFR protein containing L858R mutation or wild-type was determined based on quantification of FRET signal using a Total EGFR (L858R-specific or pan-EGFR detecting) HTRF assay kit. Phospho-EGFR (pEGFR) inhibition was determined based on quantification of FRET signal using a pY1068 EGFR HTRF assay kit. In separate assay plates, test compounds were added to the 384-well plate from a top concentration of 10 μM with 11 points, half log titration in duplicates. For each assay, 12.5 uL of cells suspended in assay media (RPMI 1640 no-phenol red medium+10% FBS) at cell densities indicated for each cell line in Table 8 below were dispensed using a multi-channel pipette to 384-well low volume white HTRF microplates containing a duplicate concentration range of test compounds and DMSO controls. The plates were kept at 37° C. with 5% CO2 for 6 hours and then incubated with either phospho EGFR or Total EGFR HTRF detection antibodies according to the cell line and EGFR mutant being assayed. Cells treated in the absence of the test compound were the negative control. Positive control was set by wells containing all reagents but no cells. FRET signal was acquired on EnVision™ Multilabel Reader (PerkinElmer, Santa Clara, CA, USA). Compound concentration that achieves 50% degradation and inhibition was reported as DC50 and IC50, respectively.

[1] = system: BaF3 cells expressing wild-type EGFR; test: Ba/F3 EGFR cell viability (CellTiter-Glo), wild-type EGFR; conditions: Mus musculus, Ba/F3 WT EGFR, read-out: CTGlo (GI50)
EGFR WT = molecular target: T2, EGFR WT (Homo sapiens, UniProt P00533); test: EGFR degradation, Total EGFR (pan-EGFR) HTRF, A431; conditions: A431 (wild-type), 6 hours; read-out: tEGFR DC50
T2 construct: A431 (harboring EGFR wildtype) was purchased from ATCC; host or cells: A431
T2 sequence (P00533 25-1210): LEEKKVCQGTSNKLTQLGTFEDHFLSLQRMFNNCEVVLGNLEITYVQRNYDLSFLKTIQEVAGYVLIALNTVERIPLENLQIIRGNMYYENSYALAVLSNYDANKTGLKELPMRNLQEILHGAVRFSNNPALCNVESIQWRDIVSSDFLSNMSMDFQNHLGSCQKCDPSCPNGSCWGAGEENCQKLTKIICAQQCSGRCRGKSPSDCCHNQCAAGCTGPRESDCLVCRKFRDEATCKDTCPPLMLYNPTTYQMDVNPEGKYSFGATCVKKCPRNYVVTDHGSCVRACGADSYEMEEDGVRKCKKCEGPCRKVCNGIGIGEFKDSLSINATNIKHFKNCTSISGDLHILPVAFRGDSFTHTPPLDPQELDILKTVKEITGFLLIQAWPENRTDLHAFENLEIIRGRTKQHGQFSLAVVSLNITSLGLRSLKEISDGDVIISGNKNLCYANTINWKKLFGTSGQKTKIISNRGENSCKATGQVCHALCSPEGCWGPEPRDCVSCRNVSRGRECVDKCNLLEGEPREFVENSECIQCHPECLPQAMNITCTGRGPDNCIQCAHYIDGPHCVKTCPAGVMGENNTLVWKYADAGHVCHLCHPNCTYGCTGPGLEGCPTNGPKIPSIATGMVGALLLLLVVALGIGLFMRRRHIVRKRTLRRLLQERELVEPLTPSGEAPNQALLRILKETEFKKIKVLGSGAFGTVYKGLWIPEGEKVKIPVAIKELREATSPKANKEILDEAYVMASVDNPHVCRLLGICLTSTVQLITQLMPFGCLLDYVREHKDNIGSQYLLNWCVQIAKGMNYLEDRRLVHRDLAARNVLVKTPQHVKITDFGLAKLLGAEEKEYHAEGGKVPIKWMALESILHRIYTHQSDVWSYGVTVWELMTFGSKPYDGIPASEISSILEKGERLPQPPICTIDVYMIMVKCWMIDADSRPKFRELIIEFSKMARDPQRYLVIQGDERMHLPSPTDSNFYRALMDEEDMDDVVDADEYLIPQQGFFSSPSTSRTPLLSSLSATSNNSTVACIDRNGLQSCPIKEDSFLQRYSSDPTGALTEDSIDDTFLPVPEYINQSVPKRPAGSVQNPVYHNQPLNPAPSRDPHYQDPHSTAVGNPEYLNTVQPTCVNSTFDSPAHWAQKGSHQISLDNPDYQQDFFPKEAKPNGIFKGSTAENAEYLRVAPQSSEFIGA
From the text: as §1, §2

EGFR L858R = EGFR L858R (Homo sapiens, UniProt P00533, L858R); test: EGFR degradation, Total EGFR (L858R-specific) HTRF, NCI-H3255; set-up: NCI-H3255 (harboring EGFR heterozygous L858R mutation); host or cells: NCI-H3255; conditions: 6 hours
Sequence of EGFR L858R (P00533 25-1210 L858R): as the sequence (P00533 25-1210 L858R) above
How it was run: (§3)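 HTRF read-outs: pY1068 phospho-EGFR for IC50; total EGFR (pan-EGFR in A431, L858R-specific in mutant lines) for DC50. Compounds were titrated 11 points, half-log, from 10 μM in duplicate onto cells in 10% FBS RPMI, incubated 6 h at 37°C.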

[2] = system: BaF3 cells expressing EGFR L858R-L792H; test: Ba/F3 EGFR cell viability (CellTiter-Glo), L858R-L792H; conditions: Mus musculus, read-out: CTGlo (GI50)
From the text: (§4) RPMI 1640 media, cell culture flasks, and 384-well microplates were purchased from VWR (Radnor, PA, USA). Fetal bovine serum (FBS) was purchased from Life Technologies (Carlsbad, CA, USA) and CellTiter-Glo® was purchased from Promega (Madison, WI, USA). The Ba/F3 parental cell line was purchased from CrownBio (Santa Clara, CA). BaF3 cell lines ectopically expressing the EGFR mutations L858R, L858R-T790M, L858R-C797S, and L858R-T790M-C797S were purchased from CrownBio and EGFR mutations L858R-L718Q, L858R-T790M-L718Q, L858R-L792H, and L858R-T790M-L792H, were purchased from Signosis (Santa Clara, CA).
(§5) Cell viability was assessed based on the quantification of ATP using the CellTiter-Glo® assay (Promega, Madison, WI, USA). To determine the effect of compounds on cell viability, all Ba/F3 cell lines were plated at a cell density of 2000 cells/well in 384-well plates using RPMI 1640+10% FBS and treated with compounds of interest using a 10-point half-log dilution series in duplicate for 72 hours, with the highest dose set at […]. CellTiter-Glo® reagent was then added and luminescence signals were measured using an EnVision™ Multimode plate reader (Perkin Elmer, Santa Clara, CA). For data normalization, cells untreated with the test compounds at Time=72 hours were set to 100% (equivalent to maximal cell growth after 72 hours); cells untreated with the test compounds at Time=0 hours were set to 0% (equivalent to cytostasis); and media-only wells were set to −100% (equivalent to complete cytotoxicity). % Viability was determined by normalizing the signal with positive and DMSO treated negative controls on the same microtiter plate. The half-maximal inhibition of cell growth (GI50) is computed from where the fitted curve crosses 50% while the half-maximal lethal dose (LD50) is computed from where the fitted curve crosses −50%.

EGFR L858R-T790M-C797S = molecular target: T3, EGFR L858R-T790M-C797S (Homo sapiens, UniProt P00533, C797S/L858R/T790M); test: EGFR degradation, Total EGFR (L858R-specific) HTRF, NCI-H1975+CS; conditions: 6 hours
T3 construct: generated using CRISPR technology to introduce the additional C797S mutation by Horizon Discovery; host or cells: NCI-H1975+CS (CRISPR knock-in of C797S)
T3 sequence (P00533 25-1210 T790M/C797S/L858R): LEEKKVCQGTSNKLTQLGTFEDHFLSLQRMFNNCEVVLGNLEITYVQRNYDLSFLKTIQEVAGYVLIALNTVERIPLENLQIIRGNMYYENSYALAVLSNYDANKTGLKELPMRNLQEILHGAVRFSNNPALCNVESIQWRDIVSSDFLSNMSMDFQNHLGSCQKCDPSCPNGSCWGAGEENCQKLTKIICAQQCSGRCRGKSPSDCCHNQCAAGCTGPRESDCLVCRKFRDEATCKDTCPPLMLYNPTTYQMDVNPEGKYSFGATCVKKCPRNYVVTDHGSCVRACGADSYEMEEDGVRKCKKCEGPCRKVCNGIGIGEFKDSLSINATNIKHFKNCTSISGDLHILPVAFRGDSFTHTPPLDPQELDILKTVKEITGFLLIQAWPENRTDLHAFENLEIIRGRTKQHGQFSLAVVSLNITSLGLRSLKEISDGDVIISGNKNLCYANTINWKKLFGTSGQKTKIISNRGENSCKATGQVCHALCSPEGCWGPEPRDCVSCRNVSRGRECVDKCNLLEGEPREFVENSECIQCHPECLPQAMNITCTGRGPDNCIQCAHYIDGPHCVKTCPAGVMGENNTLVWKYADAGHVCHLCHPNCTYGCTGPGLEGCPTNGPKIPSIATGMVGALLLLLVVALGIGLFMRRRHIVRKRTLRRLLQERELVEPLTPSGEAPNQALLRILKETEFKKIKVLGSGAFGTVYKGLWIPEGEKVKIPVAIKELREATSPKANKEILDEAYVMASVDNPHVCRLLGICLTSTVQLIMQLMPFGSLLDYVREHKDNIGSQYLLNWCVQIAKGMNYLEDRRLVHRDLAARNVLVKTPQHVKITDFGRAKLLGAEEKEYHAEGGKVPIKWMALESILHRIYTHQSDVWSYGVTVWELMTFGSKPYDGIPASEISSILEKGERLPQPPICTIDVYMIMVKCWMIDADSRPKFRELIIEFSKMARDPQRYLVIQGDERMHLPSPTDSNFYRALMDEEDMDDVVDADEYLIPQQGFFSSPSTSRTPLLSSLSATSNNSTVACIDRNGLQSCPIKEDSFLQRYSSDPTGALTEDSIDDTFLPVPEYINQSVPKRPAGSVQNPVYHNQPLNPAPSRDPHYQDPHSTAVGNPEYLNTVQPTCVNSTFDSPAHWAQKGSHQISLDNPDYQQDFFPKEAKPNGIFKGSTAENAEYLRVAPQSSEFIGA
How it was run: as §3

[3] = system: BaF3 cells expressing EGFR L858R-C797S; test: Ba/F3 EGFR cell viability (CellTiter-Glo), L858R-C797S; conditions: Mus musculus, read-out: CTGlo (GI50)
From the text: as §4, §5

[4] = H3255 (L858R), read-out: tEGFR DC50
[5] = Table 9A, NCI-H3255 cells, Total EGFR HTRF, read-out: H3255 EGFR DC50
[6] = H1975 + CS (L858R-T790M-C797S), read-out: tEGFR DC50
[7] = Table 9A, NCI-H1975+CS cells, Total EGFR HTRF, read-out: H1975+ CS EGFR DC50

Compound	IC50 (pY1068 EGFR L858R)	GI50 [1]	DC50 (EGFR WT)	DC50 (EGFR L858R; [4])	DC50 (EGFR L858R; [5])	GI50 [2]	DC50 (EGFR L858R-T790M-C797S; [6])	DC50 (EGFR L858R-T790M-C797S; [7])	GI50 [3]
O=C1CC[C@H](Nc2ccc(N3CCC(O)(CC(=O)N4CC5(C4)CN(c4ccc(-c6cc(F)c7c(c6)C(=O)N(C(C(=O)Nc6nccs6)c6ncn8c6CCC8)C7)cc4)C5)CC3)c(F)c2)C(=O)N1 (stereo partly drawn) [Compound 1, 2-(6,7-dihydro-5H-pyrrolo[1,2-c]imidazol-1-yl)-2-[6-[4-[2-[2-[1-[4-[[(3S)-2,6-dioxo-3-piperidyl]amino]-2-fluoro-phenyl]-4-hydroxy-4-piperidyl]acetyl]-2,6-diazaspiro[3.3]heptan-6-yl]phenyl]-4-fluoro-1-oxo-isoindolin-2-yl]-N-thiazol-2-yl-acetamide]	5 nM	1620 nM	> 10000 nM	5 nM	< 50 nM	9 nM	12 nM	< 50 nM	5 nM
Cn1nc(N2CCC(=O)NC2=O)c2ccc([C@H]3CCN(CC(=O)N4CC5(C4)CN(c4ccc(-c6cc(F)c7c(c6)C(=O)N(C(C(=O)Nc6nccs6)c6ncn8c6CCC8)C7)cc4)C5)CC3(F)F)cc21 (stereo partly drawn) [Compound 2, 2-(6,7-dihydro-5H-pyrrolo[1,2-c]imidazol-1-yl)-2-[6-[4-[2-[2-[(4R)-4-[3-(2,4-dioxohexahydropyrimidin-1-yl)-1-methyl-indazol-6-yl]-3,3-difluoro-1-piperidyl]acetyl]-2,6-diazaspiro[3.3]heptan-6-yl]phenyl]-4-fluoro-1-oxo-isoindolin-2-yl]-N-thiazol-2-yl-acetamide]	8 nM	310 nM	> 10000 nM	6 nM	< 50 nM	4 nM	19 nM	< 50 nM	3 nM
